Laboratory results reported in patent US11110158B2, “Prostate-associated antigens and vaccine-based immunotherapy regimens” (Pfizer Inc., priority 2012, dated 2021).

Tested on: human PSMA
Test: IFNγ ELISPOT of splenocytes, PSMA DNA constructs by PMED in Pasteur (HLA A2/DR1) mice
Assay type: in vivo, mouse
Conditions: positive SFC>50
Excerpt: Two human HLA transgenic mouse models were used to evaluate the presentation of various PSMA antigens by different HLAs and a human PSMA transgenic mouse model was used to assess the breaking of immune tolerance to human PSMA. The first HLA transgenic mouse model utilizes the HLA A2/DR1 mice (from the Pasteur Institute, Paris, France; also referred to as “Pasteur mice”). […] The second HLA transgenic mouse model uses mice that are knock in with human HLA A24 that is covalently linked to the human β-2-microglobulin at the H2bk locus. […] This model allows evaluation of antigen presentation in the context of human HLA A24.
Eight-to-10 week-old transgenic mice were immunized using PMED method with various PSMA DNA constructs in a prime/boost/boost regimen, two weeks apart between each vaccination. Alternatively, mice were primed with adenovirus vectors encoding the PSMA antigen at 1×10^9 viral particles in 50 μl (PBS) by intramuscular injection. The adenovirus vector (pShuttle-CMV vector from Stratagene) was modified to contain NheI and BgIII restriction sites within the multiple cloning site. The DNA encoding human PSMA modified was then restriction digested with NheI and BgIII, ligated into this vector and sequence confirmed. The pShuttle human PSMA modified vector was then recombined with the pAdEasy-1 vector and virus was propagated according to the AdEasy system (Stratagene). Twenty-days later, they were boosted with PMED as described above. In each of the regimens used, antigen specific T cell response was measured 7 days after the last immunization in an interferon-gamma (IFNγ) ELISPOT assay. The ELISPOT assay is similar to the sandwich enzyme-linked immunosorbent assay (ELISA). Briefly, a capture antibody specific to IFNγ BD Bioscience, #51-2525kc) is coated onto a polyvinylidene fluoride (PVDF) membrane in a microplate overnight at 4° C. The plate is blocked with serum/protein to prevent nonspecific binding to the antibody. After blocking, effector cells (such as splenocytes isolated from PSMA immunized mice) and targets (such as PSMA peptides from peptide library, target cells pulsed with peptides or tumor cells expressing the relevant antigens) or mitogen (which will stimulate splenocytes non-specifically to produce IFNγ[…] are added to the wells and incubated overnight at 37° C. in a 5% CO2 incubator. Cytokine secreted by effector cells are captured by the coating antibody on the surface of the PVDF membrane. After removing the cells and culture media, 100 μl of a biotinylated polyclonal anti-mouse IFNγ antibody (0.5 mg/ml-BD Bioscience, #51-1818 kz) was added to each of the wells for detection. The spots are visualized by adding streptavidin-horseradish peroxidase (HRP, BD Bioscience, #557630) and the precipitate substrate, 3-amino-9-ethylcarbazole (AEC), to yield a red color spot. Each spot represents a single cytokine producing T cell. In general, in the studies disclosed here the ELISpot assay was set up as follows: 5×10^5 splenocytes from PSMA immunized mice were cultured (1) in the presence of PSMA specific peptides derived from a PSMA peptide library (see Table 16) made of 15-amino acid peptides overlapping by 11 amino acids, (2) with known HLA A2.1 restricted PSMA specific peptides, or (3) with tumor cells. To measure the recognition of endogenous antigen presentation, splenocytes were cultured with a human HLA A2 prostate cancer cells (i.e. LNCaP, available from ATCC) that naturally express PSMA or cultured with HLA A2 tumor cells transduced with adenovirus encoding and thus expressing the human PSMA modified antigen. In addition, human PSMA ECD protein was added to the ELISpot assay to measure specifically CD4 IFNγ[…] producing cells. For controls where appropriate, HLA A2 restricted HER-2 specific peptide p168-175 or tumor cells not expressing PSMA or irrelevant protein such as BSA were used as a negative control in the IFNγ […]ELISpot assay. […]

**Q.** “PSMA modified: membrane-bound polypeptide of amino acids 15-750 of human PSMA, SEQ ID NO: 9; tested as DNA construct” was tested. Which “IFN-γ SFC/1 × 10^6 splenocytes” value (Table 2, HLA A2.1 restricted peptide PSMA p275, ( ) = standard deviation) did it give?
**A.** 304 (21) SFC/1 × 10^6 splenocytes

**Q.** What about the “IFN-γ SFC/1 × 10^6 splenocytes” value (Table 2, HLA A2.1 restricted peptide PSMA p627, ( ) = standard deviation) of the same substance?
**A.** 222 (14) SFC/1 × 10^6 splenocytes

**Q.** What about the “IFN-γ SFC/1 × 10^6 splenocytes” value (Table 2, HLA A2.1 restricted peptide PSMA p662, ( ) = standard deviation) of the same substance?
**A.** 925.1 (77) SFC/1 × 10^6 splenocytes

**Q.** And the “IFN-γ SFC/1 × 10^6 splenocytes” value (Table 2, HLA A2.1 restricted peptide PSMA p663, ( ) = standard deviation)?
**A.** 1524.9 (45) SFC/1 × 10^6 splenocytes

**Q.** What about the “IFN-γ SFC/1 × 10^6 splenocytes” value (Table 2, PC3 tumor cells (no PSMA, negative control), ( ) = standard deviation) of the same substance?
**A.** 1 (1) SFC/1 × 10^6 splenocytes

**Q.** And the “IFN-γ SFC/1 × 10^6 splenocytes” value (Table 2, PSMA ECD protein, ( ) = standard deviation)?
**A.** 731 (16) SFC/1 × 10^6 splenocytes

**Q.** What about the “IFN-γ SFC/1 × 10^6 splenocytes” value (Table 2, PSMA+ HLA A2.1 LNCaP tumor cells, ( ) = standard deviation) of the same substance?
**A.** 96 (12) SFC/1 × 10^6 splenocytes

**Q.** And the “IFN-γ SFC/1 × 10^6 splenocytes” value (Table 2, target peptide PSA p64, ( ) = standard deviation)?
**A.** 2 (4) SFC/1 × 10^6 splenocytes
